The source made the active and inactive calls.
Key:
[1] = LMP1-driven NF-kB reporter inhibition, dose response, cell-based, luciferase reporter, luminescence, dry powder, set 2 (AID 624376); type: functional
[2] = inhibitors of TNFa-stimulated NF-kB luciferase reporter, dose response, selectivity assay for EBV LMP1 NF-kB inhibitor project, HEK293 LMP1 reporter cells, dry powder, set 2 (AID 624369); type: functional
[3] = target: T1, Small ubiquitin-related modifier 1 (Homo sapiens, UniProt P63165); test: inhibitors of SUMO1 partner interactions, dose response, biochemical, FRET (AID 624383); type: functional; details: read-out: IC50_Mean
T1 sequence (P63165 whole entry): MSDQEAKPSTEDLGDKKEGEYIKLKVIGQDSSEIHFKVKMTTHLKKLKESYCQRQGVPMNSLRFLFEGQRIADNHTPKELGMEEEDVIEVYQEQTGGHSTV

[4] = P. falciparum late gametocyte killing, dose response, luminescence (AID 1117278); type: functional, cell-based;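 also: gametocytes exposed to compound for 24 hours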
[5] = target: T1, Small ubiquitin-related modifier 1; test: inhibitors of SUMO1 peptide binding, dose response, biochemical, fluorescence polarization, uHTS hits (AID 624382); type: functional; details: read-out: IC50_Mean
[6] = Jurkat T cell cytotoxicity, dose response, cytotoxicity control for P. falciparum gametocyte viability project, luminescence (AID 1117277); type: functional, cell-based;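 also: potency reflects loss of cellular ATP meaning fewer viable cells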
[7] = StAR promoter reporter inhibition counter-screen, dose response, counter-screen for LRH-1 inverse agonist project, cell-based, luminescence, luciferase reporter (AID 651969); type: functional
Steroidogenic factor 1 = Steroidogenic factor 1 (Homo sapiens, UniProt Q13285); test: Counterscreen for inverse agonists of the liver receptor homolog-1 (LRH-1; NR5A2): Luminescence-based cell-based high throughput dose response assay to identify inverse agonists of the Steroidogenic Factor 1 Nuclear Receptor (SF1; NR5A1).; type: functional
Steroidogenic factor 1, sequence (Q13285 whole entry): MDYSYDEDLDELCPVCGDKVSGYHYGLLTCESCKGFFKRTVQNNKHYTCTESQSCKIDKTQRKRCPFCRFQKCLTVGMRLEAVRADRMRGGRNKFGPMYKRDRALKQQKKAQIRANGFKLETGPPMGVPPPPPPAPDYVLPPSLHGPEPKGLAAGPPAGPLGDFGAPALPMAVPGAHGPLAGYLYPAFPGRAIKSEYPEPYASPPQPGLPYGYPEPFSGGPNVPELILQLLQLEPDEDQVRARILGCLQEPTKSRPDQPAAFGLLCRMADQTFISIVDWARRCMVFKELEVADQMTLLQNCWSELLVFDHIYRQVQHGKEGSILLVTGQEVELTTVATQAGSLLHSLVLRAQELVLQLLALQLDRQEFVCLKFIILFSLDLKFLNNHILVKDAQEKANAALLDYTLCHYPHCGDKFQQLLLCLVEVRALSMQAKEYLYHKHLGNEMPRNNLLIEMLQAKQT

[8] = target: Nuclear receptor subfamily 5 group A member 2 (Homo sapiens, UniProt O00482); type: functional, cell-based;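 also: HEK293T cells transfected with LRH-1 and a StAR promoter luciferase reporter; potency for inhibitors that lower LRH-1 driven reporter light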
Nuclear receptor subfamily 5 group A member 2, sequence (O00482 whole entry): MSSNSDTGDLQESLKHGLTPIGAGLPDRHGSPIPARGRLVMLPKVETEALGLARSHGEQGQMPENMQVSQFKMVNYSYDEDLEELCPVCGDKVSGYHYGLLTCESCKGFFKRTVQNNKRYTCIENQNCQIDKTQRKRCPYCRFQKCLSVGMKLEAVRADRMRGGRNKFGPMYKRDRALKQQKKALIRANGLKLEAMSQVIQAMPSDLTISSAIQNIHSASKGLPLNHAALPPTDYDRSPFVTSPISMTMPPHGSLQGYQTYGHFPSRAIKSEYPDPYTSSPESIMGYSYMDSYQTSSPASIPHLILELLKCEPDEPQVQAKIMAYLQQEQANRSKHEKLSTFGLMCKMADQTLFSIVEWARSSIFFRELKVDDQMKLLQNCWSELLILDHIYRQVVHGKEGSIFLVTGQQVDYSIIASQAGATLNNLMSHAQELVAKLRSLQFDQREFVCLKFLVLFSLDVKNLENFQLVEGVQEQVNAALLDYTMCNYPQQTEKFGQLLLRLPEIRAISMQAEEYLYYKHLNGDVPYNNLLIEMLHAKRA

[9] = target: T2, Sentrin-specific protease 8 (Homo sapiens, UniProt Q96LD8); type: functional
T2 sequence (Q96LD8 whole entry): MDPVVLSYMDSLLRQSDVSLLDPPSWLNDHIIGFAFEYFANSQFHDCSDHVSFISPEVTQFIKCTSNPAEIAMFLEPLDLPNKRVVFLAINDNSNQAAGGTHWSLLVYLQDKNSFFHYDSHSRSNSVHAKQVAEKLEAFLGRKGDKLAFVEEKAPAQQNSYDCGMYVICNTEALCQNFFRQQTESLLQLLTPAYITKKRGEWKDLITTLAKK

[10] = target: T2, Sentrin-specific protease 8; type: functional; remark: listed apart in the source
[11] = Fluorescence-based cell-based high throughput dose response assay for inhibitors of the interaction of nucleotide-binding oligomerization domain containing 2 (NOD2) and the receptor-interacting serine-threonine kinase 2 (RIPK2).; type: functional; details: Homo sapiens
HEK293 = test: inhibitors of LMP1-driven NF-kB reporter, dose response, cell-based, HEK293, luciferase, cherry-pick (AID 588343); type: functional; details: Homo sapiens
[12] = control 3'UTR Renilla luciferase suppression, dose response, counter-screen for Shn3 inhibitor project, cell-based, Clone20-Shn3RL, cherry-picked (AID 624133); type: functional
[13] = target: T3, Latent membrane protein 1 (Human herpesvirus 4 (strain B95-8), UniProt P03230); test: TES1-eGFP NF-kB reporter inhibition versus Tet-On dsRED, dose response, selectivity assay for LMP1 NF-kB inhibitor project, imaging, HEK293T, dual-color eGFP/dsRED, cherry-picks (AID 588398); type: functional, cell-based
T3 sequence (P03230 whole entry): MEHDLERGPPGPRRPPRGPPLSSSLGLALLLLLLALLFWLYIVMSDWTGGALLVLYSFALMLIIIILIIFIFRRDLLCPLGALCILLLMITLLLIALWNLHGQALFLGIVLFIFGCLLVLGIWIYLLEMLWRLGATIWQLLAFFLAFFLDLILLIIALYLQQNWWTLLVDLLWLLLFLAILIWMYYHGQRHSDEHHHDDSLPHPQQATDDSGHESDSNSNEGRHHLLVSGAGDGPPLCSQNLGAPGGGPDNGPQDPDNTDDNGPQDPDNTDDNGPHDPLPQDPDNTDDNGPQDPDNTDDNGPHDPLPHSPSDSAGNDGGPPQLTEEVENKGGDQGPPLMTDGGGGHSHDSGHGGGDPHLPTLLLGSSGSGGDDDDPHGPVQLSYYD

[14] = HepG2 cell cytotoxicity, dose response, cytotoxicity control for Shn3 inhibitor project, CellTiter-Glo, cherry-picked (AID 624134); type: functional, cell-based
[15] = Shn3 3'UTR reporter inhibitors, dose response, cell-based, Clone20 osteoblasts, firefly luciferase, cherry-picked (AID 624132); type: functional;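 also: firefly luciferase luminescence from reporter carrying the Shn3 3'UTR in osteoblasts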
Beta Lactamase [16] = target: T4, Beta Lactamase (Pseudomonas aeruginosa, UniProt Q932Y6); test: VIM-2 metallo-beta-lactamase inhibition constant, late-stage follow-up, mechanism study, biochemical, probe results, panel member Nitrocefin-based VIM2 Inhibition Assay (AID 2128)
T4 sequence (Q932Y6 whole entry): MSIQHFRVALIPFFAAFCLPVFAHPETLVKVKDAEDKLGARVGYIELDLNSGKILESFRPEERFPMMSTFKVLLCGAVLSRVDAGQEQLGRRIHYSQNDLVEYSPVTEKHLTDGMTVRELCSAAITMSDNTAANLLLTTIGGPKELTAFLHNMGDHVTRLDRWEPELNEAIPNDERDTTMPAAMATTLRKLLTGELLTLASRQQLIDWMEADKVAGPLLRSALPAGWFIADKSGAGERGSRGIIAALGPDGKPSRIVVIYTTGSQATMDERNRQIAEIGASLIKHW

Beta-lactamase [17] = target: T5, Beta-lactamase (Pseudomonas aeruginosa, UniProt Q79MP6); test: IMP-1 metallo-beta-lactamase inhibitors, dose response, selectivity assay for VIM-2 inhibitor project, biochemical, epi-absorbance (AID 1920)
T5 sequence (Q79MP6 whole entry): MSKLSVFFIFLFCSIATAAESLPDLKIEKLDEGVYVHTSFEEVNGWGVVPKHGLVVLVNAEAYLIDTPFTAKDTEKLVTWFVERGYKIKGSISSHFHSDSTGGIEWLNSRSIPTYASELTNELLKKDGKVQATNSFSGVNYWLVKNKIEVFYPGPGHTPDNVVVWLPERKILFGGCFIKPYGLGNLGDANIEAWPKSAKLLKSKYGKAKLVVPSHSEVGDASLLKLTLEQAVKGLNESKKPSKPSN

Beta-lactamase [18] = target: T6, Beta-lactamase (Salmonella choleraesuis (strain SC-B67), UniProt Q5J463); test: Epi-absorbance-based counterscreen for selective VIM-2 inhibitors: dose response biochemical high throughput screening assay to identify inhibitors of TEM-1 serine-beta-lactamase.
T6 sequence (Q5J463 whole entry): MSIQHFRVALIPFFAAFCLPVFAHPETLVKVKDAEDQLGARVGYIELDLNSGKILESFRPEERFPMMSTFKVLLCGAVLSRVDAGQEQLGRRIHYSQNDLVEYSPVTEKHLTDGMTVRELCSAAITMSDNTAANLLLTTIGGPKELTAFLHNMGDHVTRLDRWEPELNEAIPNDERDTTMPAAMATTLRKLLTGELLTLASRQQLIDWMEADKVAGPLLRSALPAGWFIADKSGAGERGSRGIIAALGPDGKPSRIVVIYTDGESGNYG

Beta-lactamase [19] = target: T5, Beta-lactamase; test: […] counterscreen for selective VIM-2 inhibitors: dose response biochemical high throughput screening assay to identify inhibitors of IMP-1 metallo-beta-lactamase.
Beta Lactamase [20] = target: T4, Beta Lactamase; test: VIM-2 metallo-beta-lactamase inhibition constant, late-stage follow-up, mechanism study, biochemical, probe results, panel member Nitrocefin-based IMP1 Inhibition Counterscreen (AID 2128)
Beta-lactamase [21] = target: T6, Beta-lactamase; test: Late stage results from the probe development efforts to identify selective inhibitors of VIM-2 metallo-beta-lactamase: probe results. Panel member name: Nitrocefin-based TEM-1 Inhibition Counterscreen

What does the source list for `O=C(C[C@@H]1C[C@H]2c3cc(NS(=O)(=O)c4ccc(F)cc4)ccc3O[C@H]2[C@H](CO)O1)NCc1ccc(Oc2ccccc2)cc1`?
AbsAC35 [1]: 65.62 µM; AbsAC35 [2]: 42.88 µM

Which IC50 [3] does the source give for `Cc1ccc(N2C(=S)SC3CS(=O)(=O)CC32)cc1` (stereo not drawn) here?
The IC50 was 100 µM (inactive).

And the IC50 [4]?
Its IC50 is > 109 µM (inactive).

What about the IC50 [5] of the same compound?
The IC50 was > 66.6 µM (inactive).

And the IC50 [6]?
Its IC50 is > 83.2 µM (inactive).

For `O=C(COC(=O)CCN1C(=O)C2CC=CCC2C1=O)NCCc1ccc(F)cc1` (stereo not drawn), which IC50 [7] is on record?
Its IC50 is 35.9 µM (inactive).

What about the IC50 (Steroidogenic factor 1) of the same compound?
The IC50 was 2.33 µM (active).

What about the IC50 [8] of the same compound?
Its IC50 is 19.1 µM (inactive).

Which IC50 [9] does the source give for `O=C(CCS(=O)(=O)Cc1ccccc1F)N1CCc2ccccc2C1` here?
The IC50 was 7.69 µM (active).

And the IC50 [10]?
The IC50 was > 100 µM (inactive).

With `O=C1C(=C(c2ccccc2)N2CCOCC2)Cc2ccccc21` as the compound, how does the IC50 [11] read?
The IC50 was 1.34 µM (active).

And the AC50 (HEK293)?
Its AC50 is 4.87 µM (active).

What about the AC50 [12] of the same compound?
Its AC50 is 5.97 µM (active).

What about the AC50 [13] of the same compound?
The AC50 was 2.98 µM (active).

And the AC50 [14]?
Its AC50 is 38.4 µM (active).

And the AC50 [15]?
Its AC50 is 0.999 µM (active).

For `O=c1[nH]c2c(s1)C(c1cccnc1)C1C3CCC(C3)C1S2` (stereo not drawn), which IC50 (Beta Lactamase [16]) is on record?
The IC50 was 0.223 µM (active).

What about the IC50 (Beta-lactamase [17]) of the same compound?
The IC50 was > 59.6 µM (inactive).

And the IC50 (Beta-lactamase [18])?
The IC50 was > 59.6 µM (inactive).

And the IC50 (Beta-lactamase [19])?
The IC50 was > 59.6 µM (inactive).

What about the IC50 (Beta Lactamase [20]) of the same compound?
The IC50 was > 60 µM (inactive).

What about the IC50 (Beta-lactamase [21]) of the same compound?
Its IC50 is > 60 µM (active).

Source: ChEMBL document CHEMBL1201862, “PubChem BioAssay data set” (2004)
